Starred links: 1 amine or outer side, 2 acyl side, 3 side chain; linkers in the order of their positions; H or OH if unused. Non-standard residues stand in square brackets, D forms with d. Residues, ends and D or L forms follow the SMILES beside them. Hexanoyl(5S-NH,4S-OH,6-Ph) = O=C(CC[C@H](O)[C@H](Cc1ccccc1)N[*:1])[*:2]; X5 = O=C([C@H]1CCCN1C[C@H](O)[C@H](Cc1ccccc1)N[*:1])[*:2]; X2 = CC(C)C[C@H](N[*:1])[C@@H](O)CN1CCC[C@@H]1C(=O)[*:2]; X1 = O=C(C[C@H](O)[C@H](Cc1ccc(O)cc1)N[*:1])[*:2]; X6 = O=C(CC[C@@H](O)[C@H](Cc1ccccc1)N[*:1])[*:2]; Sta = CC(C)C[C@H](N)[C@@H](O)CC(=O)O; Lac = C[C@H](O)C(=O)O

The assay deals with Human immunodeficiency virus type 1 protease (Human immunodeficiency virus 1, UniProt Q72874). Nature of the assay: Binding affinity to HIV-1 protease.
What is called Ki is the dissociation constant of the complex between target and ligand, obtained from inhibition or displacement. For the compound `CC(C)(C)OC(=O)N[C@@H](Cc1ccccc1)[C@H](O)CC(=O)N[C@@H](CCC(=O)O)C(=O)N[C@@H](Cc1ccccc1)C(=O)O`, the Ki is 3980 nM.

Compound `COC(=O)[C@@H](NC(=O)[C@@H](NC(=O)CC[C@H](O)[C@H](Cc1ccccc1)NC(=O)[C@H](C)NC(=O)[C@H](C)NC(=O)[C@@H](N)CO)C(C)C)C(C)C` (H-SAA[Hexanoyl(5S-NH,4S-OH,6-Ph)]VV-OMe) showed a Ki of 61.7 nM. Against the preceding compound, the Ki is about 65-fold lower.

On to `CC(C)(C)OC(=O)N[C@@H](Cc1ccccc1)[C@@H](O)CC(=O)N[C@@H](CCC(=O)O)C(=O)N[C@@H](Cc1ccccc1)C(=O)O`, for which the affinity corresponds to a Ki of 63.1 nM.

Turning to `CC(C)(C)OC(=O)N[C@H](Cc1ccccc1)[C@H](O)CC(=O)N[C@@H](CCC(=O)O)C(=O)N[C@@H](Cc1ccccc1)C(=O)O`, the affinity corresponds to a Ki of 3020 nM.

The compound `CC(C)[C@H](NC(=O)OCc1ccccc1)C(=O)N[C@@H](Cc1ccccc1)[C@H](O)[C@@H](O)[C@H](Cc1ccccc1)NC(=O)[C@@H](NC(=O)OCc1ccccc1)C(C)C` showed a Ki of 0.38 nM. This Ki lies about 7900-fold lower than the previous one.

As to `CC(C)[C@H](NC(=O)OCc1ccccn1)C(=O)N[C@@H](Cc1ccccc1)C(=O)C(F)(F)CCc1ccccc1`, the affinity, expressed as Ki, was 2.19 nM.

For `CC[C@H](C)[C@H](NC(=O)[C@H]1CCCN1C[C@H](O)[C@H](Cc1ccccc1)NC(=O)[C@H](CC(N)=O)NC(=O)[C@H](CC(C)C)NC(=O)[C@H](CO)NC(C)=O)C(=O)N[C@H](C(=O)OC)C(C)C` (Ac-SLN[X5]IV-OMe), the affinity corresponds to a Ki of 0.24 nM.

In turn, `CC(C)[C@H](NC(=O)OCc1ccccc1)C(=O)N[C@@H](Cc1ccccc1)C(=O)C(F)(F)CCc1ccccc1` (stereo in doubt; 17) showed a Ki of 5.01 nM. This Ki lies about 21-fold higher than the previous one.

As for `NC(=O)C[C@H](NC(=O)OCc1ccccc1)C(=O)N[C@@H](Cc1ccccc1)C(=O)C(F)(F)CCc1ccccc1`, the Ki was 2.09 nM.

`CC[C@H](C)[C@H](NC(=O)[C@H]1CCCN1C(=O)[C@H](CO)NC(=O)[C@@H](NC(=O)[C@@H]1CCCN1C(=O)[C@H](Cc1ccccc1)NC(=O)[C@H](CC(N)=O)NC(=O)[C@H](CC(C)C)NC(=O)[C@@H](NC(=O)[C@@H](N)CS)[C@@H](C)O)[C@@H](C)CC)C(=O)O` gave a Ki of 70.8 nM.

The compound `CCC(C)CNC(=O)[C@H](C(C)C)[C@@H](O)[C@H](O)[C@H](CC(C)C)NC(=O)[C@H](Cc1c[nH]cn1)NC(=O)[C@H](Cc1ccccc1)NC(=O)OC(C)(C)C` (stereo not given in full) gave a Ki of 363 nM.

In turn, `CC[C@H](C)[C@H](NC(=O)[C@H](C(C)C)[C@@H](O)[C@H](O)[C@H](CC(C)C)NC(=O)[C@H](Cc1c[nH]cn1)NC(=O)[C@H](Cc1ccccc1)NC(=O)OC(C)(C)C)C(=O)NCc1ccccn1` showed a Ki of 28.2 nM.

`CC(C)(C)OC(=O)N[C@@H](Cc1ccccc1)[C@@H](O)CC(Cc1ccc(OCC(=O)O)cc1)C(=O)N[C@@H]1c2ccccc2C[C@H]1O` (stereo not given in full) gave a Ki of 0.339 nM.

As for `CC[C@H](C)[C@H](NC(=O)[C@H](C(C)C)[C@@H](O)[C@H](O)[C@H](CC(C)C)NC(=O)OCc1ccccc1)C(=O)NCc1ccccn1`, the Ki is 5.01 nM.

Compound `CC(=O)N[C@H](C(=O)C[C@@H](Cc1ccccc1)[C@H](O)[C@H](Cc1ccccc1)NC(=O)[C@@H](NC(C)=O)C(C)C)C(C)C` showed a Ki of 12 nM.

On to `CC(=O)N[C@@H](CO)C(=O)N[C@@H](CCC(N)=O)C(=O)N[C@@H](CC(N)=O)C(=O)N[C@@H](Cc1ccccc1)CN1CCC[C@@H]1C(=O)N[C@H](C(=O)N[C@H](C(N)=O)C(C)C)C(C)C` (stereo in doubt; 71), for which the Ki is 14100 nM.

`CC[C@H](C)[C@H](NC(=O)[C@@H](C[C@H](O)C(CC1CCCCC1)NC(=O)[C@@H](N)C(C)C)C(C)C)C(=O)NCc1ccccn1` (stereo not given in full) had an inhibition constant (Ki) of 70.8 nM.

Regarding `CC[C@H](C)[C@H](NC(=O)[C@@H]1CCCN1C[C@@H](CC(=O)[C@H](CC(N)=O)NC(=O)[C@H](CCC(N)=O)NC(=O)[C@H](CO)NC(=O)[C@@H](N)C(C)C)Cc1ccccc1)C(=O)N[C@H](C(=O)O)C(C)C`, the Ki was 3550 nM.

As for `COC(=O)[C@@H](NC(=O)[C@@H](NC(=O)CC[C@H](O)[C@H](Cc1ccccc1)NC(=O)[C@H](C)NC(=O)OCc1ccccc1)C(C)C)C(C)C`, the affinity corresponds to a Ki of 120 nM. This Ki lies about 30-fold lower than the previous one.

`COC(=O)[C@@H](NC(=O)[C@@H](NC(=O)CC[C@@H](O)[C@H](Cc1ccccc1)NC(=O)[C@H](C)NC(=O)[C@H](C)NC(=O)[C@@H](N)CO)C(C)C)C(C)C` (H-SAA[X6]VV-OMe): affinity was put at a Ki of 4900 nM. This Ki is about 41-fold higher than that of the compound before.

In the case of `CC(C)(C)OC(=O)N[C@@H](Cc1ccccc1)[C@@H](O)C(=O)N[C@@H](CCC(=O)O)C(=O)N[C@@H](Cc1ccccc1)C(=O)O` (stereo in doubt; 76), the Ki was 24000 nM. This Ki is about 4.9-fold higher than that of the compound before.

Turning to `CC[C@H](C)[C@H](NC(=O)[C@H]1CCCN1C[C@H](O)[C@H](Cc1ccccc1)NC(=O)[C@H](CC(N)=O)NC(=O)[C@H](CC(C)C)NC(=O)[C@H](CO)NC(C)=O)C(=O)OC` (Ac-SLN[X5]I-OMe), the affinity, expressed as Ki, was 417 nM.

`CC(C)C[C@H](NC(=O)[C@H](C)NC(=O)C[C@H](O)[C@H](CC(C)C)NC(=O)[C@@H](NC(=O)[C@@H](NC(=O)[C@H](C)O)C(C)C)C(C)C)[C@@H](O)CC(=O)O` (H-[Lac]VV[Sta]A[Sta]-OH) gave a Ki of 19100 nM.

The compound `CC(C)[C@H](NC(=O)[C@@H](NC(=O)C1CCCN1C[C@H](Cc1ccccc1)NC(=O)[C@H](C)NC(=O)[C@H](C)NC(=O)[C@@H](N)CO)C(C)C)C(N)=O` (single isomer, unassigned) had a Ki of 18200 nM.

Compound `CC(C)(C)OC(=O)N[C@@H](Cc1ccccc1)[C@@H](O)C(=O)N[C@@H](CCC(=O)O)C(=O)N[C@@H](Cc1ccccc1)C(=O)O` (stereo in doubt; 72) showed a Ki of 17000 nM.

The compound `CC[C@H](C)[C@H](NC(=O)OCc1ccccc1)C(=O)N[C@@H](Cc1ccccc1)[C@@H](O)[C@@H](CC(=O)[C@H](NC(=O)OCc1ccccc1)[C@@H](C)CC)Cc1ccccc1` gave a Ki of 4.9 nM.

Compound `COC(=O)[C@@H](NC(=O)[C@@H](NC(=O)C[C@H](O)[C@H](Cc1ccc(O)cc1)NC(=O)[C@H](C)NC(=O)[C@H](C)NC(=O)[C@@H](N)CO)C(C)C)C(C)C` (H-SAA[X1]VV-OMe) showed a Ki of 79.4 nM.

With `CC[C@H](C)[C@H](NC(=O)[C@H]1CCCN1C[C@H](O)[C@H](CC(C)C)NC(=O)[C@H](CC(N)=O)NC(=O)[C@H](CC(C)C)NC(=O)[C@H](CO)NC(C)=O)C(=O)OC` (Ac-SLN[X2]I-OMe), the inhibition constant (Ki) is 977 nM. Compared with the last compound, the Ki is about 12-fold higher.

`CC(C)(C)OC(=O)N[C@@H](Cc1ccccc1)[C@@H](O)[C@H](O)[C@H](Cc1ccccc1)NC(=O)OC(C)(C)C` had a Ki of 39.8 nM.

`CC(C)(C)OC(=O)N[C@H](Cc1ccccc1)[C@@H](O)CC(=O)N[C@@H](CCC(=O)O)C(=O)N[C@@H](Cc1ccccc1)C(=O)O`: the Ki is 7080 nM.

With `CC(C)[C@H](NC(=O)OCc1ccccc1)C(=O)N[C@@H](Cc1ccccc1)C(=O)C(F)(F)CCc1ccccn1`, affinity was put at a Ki of 1.41 nM.

Compound `CC(C)CC(=O)N[C@H](C(=O)N[C@H](C(=O)N[C@@H](CC(C)C)[C@@H](O)CC(=O)N[C@@H](C)C(=O)N[C@@H](CC(C)C)[C@@H](O)CC(=O)O)C(C)C)C(C)C` [PEPSTATIN] had a Ki of 17 nM.

`CC[C@H](C)[C@H](NC(=O)[C@H](C(C)C)[C@H](O)[C@H](O)[C@H](CC(C)C)NC(=O)[C@H](Cc1c[nH]cn1)NC(=O)[C@H](Cc1ccccc1)NC(=O)OC(C)(C)C)C(=O)NCc1ccccn1` gave a Ki of 501 nM. This Ki lies about 29-fold higher than the previous one.

Take `CC(C)[C@H](NC(=O)NCc1ccccn1)C(=O)N[C@@H](Cc1ccccc1)C(=O)C(F)(F)CCc1ccccc1`: the Ki is 2.88 nM. This Ki is about 170-fold lower than that of the compound before.

Consider `CC(C)(C)OC(=O)N[C@@H](Cc1ccccc1)[C@H](O)[C@H](O)[C@H](Cc1ccccc1)NC(=O)OC(C)(C)C`, for which the Ki was 12 nM.

The record behind these values is ChEMBL document CHEMBL1127540, “Three-dimensional pharmacophores from binding data” (J Med Chem, 1994).
